Assay results as given in patent US7741281B2, “Hepatitis C virus inhibitors” (Bristol-Myers Squibb Company, priority 2005, dated 2010).

What was measured:
[1] = tested on: HCV replicon in HUH-7 cells; assay: HCV replicon FRET assay; format: cell-based, HCV strain 1b; details: Hepatitis C virus, Huh-7; HCV replicon; read-out: EC50 Activity Range
Excerpt: An HCV replicon whole cell system was established as described by Lohmann V, Korner F, Koch J, Herian U, Theilmann L, Bartenschlager R., Science 285(5424):110-3 (1999). This system enabled us to evaluate the effects of our HCV Protease compounds on HCV RNA replication. Briefly, using the HCV strain 1b sequence described in the Lohmann paper (Assession number: AJ238799), an HCV cDNA was synthesized by Operon Technologies, Inc. (Alameda, Calif.), and the full-length replicon was then assembled in plasmid pGem9zf(+) (Promega, Madison, Wis.) using standard molecular biology techniques. The replicon consists of (i) the HCV 5′ UTR fused to the first 12 amino acids of the capsid protein, (ii) the neomycin phosphotransferase gene (neo), (iii) the IRES from encephalomyocarditis virus (EMCV), and (iv) HCV NS3 to NS5B genes and the HCV 3′ UTR. Plasmid DNAs were linearized with ScaI and RNA transcripts were synthesized in vitro using the T7 MegaScript transcription kit (Ambion, Austin, Tex.) according to manufacturer's directions. In vitro transcripts of the cDNA were transfected into the human hepatoma cell line, HUH-7. […] Resulting cell lines were characterized for positive and negative strand RNA production and protein production over time.
The HCV replicon FRET assay was developed to monitor the inhibitory effects of compounds described in the disclosure on HCV viral replication. HUH-7 cells, constitutively expressing the HCV replicon, were grown in Dulbecco's Modified Eagle Media (DMEM) (Gibco-BRL) containing 10% Fetal calf serum (FCS) (Sigma) and 1 mg/ml G418 (Gibco-BRL). Cells were seeded the night before (1.5×10^4 cells/well) in 96-well tissue-culture sterile plates. Compound and no compound controls were prepared in DMEM containing 4% FCS, 1:100 Penicillin/Streptomysin (Gibco-BRL), 1:100 L-glutamine and 5% DMSO in the dilution plate (0.5% DMSO final concentration in the assay). Compound/DMSO mixes were added to the cells and incubated for 4 days at 37° C. After 4 days, cells were first assessed for cytotoxicity using alamar Blue (Trek Diagnotstic Systems) for a CC50 reading. The toxicity of compound (CC50) was determined by adding 1/10th volume of alamar Blue to the media incubating the cells. After 4 hours, the fluorescence signal from each well was read, with an excitation wavelength at 530 nm and an emission wavelength of 580 nm, using the Cytofluor Series 4000 (Perspective Biosystems). Plates were then rinsed thoroughly with Phosphate-Buffered Saline (PBS) (3 times 150 μl). The cells were lysed with 25 μl of a lysis assay reagent containing an HCV protease substrate (5× cell Luciferase cell culture lysis reagent (Promega #El 53A) diluted to 1× with distilled water, NaCl added to 150 mM final, the FRET peptide substrate (as described for the enzyme assay above) diluted to 10 μM final from a 2 mM stock in 100% DMSO. […]. The plate was then placed into the Cytofluor 4000 instrument which had been set to 340 nm excitation/490 nm emission, automatic mode for 21 cycles and the plate read in a kinetic mode. EC50 determinations were carried out as described for the IC50 determinations.

[2] = target: T1, HCV NS3/4A protease complex, BMS strain (UniProt P27958, species not given/STRAIN_BMS); assay: FRET peptide assay to monitor HCV NS3/4A proteolytic activity (BMS strain); format: biochemical, HCV genotype 1a; details: NS3/4A BMS strain; read-out: IC50 Activity Range
T1 construct: for H77 and J4L6S; fused on or other part: Three-lysine solubilizing tail at the end of NS4A, for the H77 and J4L6S constructs; Purification on Ni-NTA and the pET21b vector imply a His tag
T1 sequence (P27958 1027-1657, change not shown, one chain of several): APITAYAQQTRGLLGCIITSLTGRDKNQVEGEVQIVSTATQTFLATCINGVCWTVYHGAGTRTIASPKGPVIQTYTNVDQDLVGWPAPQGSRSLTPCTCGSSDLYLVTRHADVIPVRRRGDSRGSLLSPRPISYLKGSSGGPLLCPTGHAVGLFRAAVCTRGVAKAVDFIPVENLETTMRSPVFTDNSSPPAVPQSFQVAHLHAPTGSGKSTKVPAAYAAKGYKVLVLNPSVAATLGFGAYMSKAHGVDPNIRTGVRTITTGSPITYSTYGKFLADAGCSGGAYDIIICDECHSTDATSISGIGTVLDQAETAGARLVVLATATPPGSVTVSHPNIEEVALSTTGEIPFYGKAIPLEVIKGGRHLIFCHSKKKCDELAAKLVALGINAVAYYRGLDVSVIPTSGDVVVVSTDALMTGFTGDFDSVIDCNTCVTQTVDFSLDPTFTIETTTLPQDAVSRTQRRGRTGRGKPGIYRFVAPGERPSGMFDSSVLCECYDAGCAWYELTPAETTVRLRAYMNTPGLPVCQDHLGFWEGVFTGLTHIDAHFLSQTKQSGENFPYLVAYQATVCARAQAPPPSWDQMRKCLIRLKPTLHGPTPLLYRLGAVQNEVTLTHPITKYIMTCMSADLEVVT
Excerpt: HCV NS3 protease complexes, derived from the BMS strain, H77 strain or J4L6S strain, were generated, as described below. These purified recombinant proteins were generated for use in a homogeneous assay (see below) to provide an indication of how effective compounds of the present disclosure would be in inhibiting HCV NS3 proteolytic activity.
Serum from an HCV-infected patient was obtained from Dr. T. Wright, San Francisco Hospital. An engineered full-length cDNA (compliment deoxyribonucleic acid) template of the HCV genome (BMS strain) was constructed from DNA fragments obtained by reverse transcription-PCR (RT-PCR) of serum RNA (ribonucleic acid) and using primers selected on the basis of homology between other genotype 1a strains. From the determination of the entire genome sequence, a genotype 1a was assigned to the HCV isolate according to the classification of Simmonds et al. (See P Simmonds, K A Rose, S Graham, S W Chan, F McOmish, B C Dow, E A Follett, P L Yap and H Marsden, J. Clin. Microbiol., 31(6), 1493-1503 (1993)). […] The infectious clones, H77 (1a genotype) and J4L6S (1b genotype) were obtained from R. Purcell (NIH) and the sequences are published in Genbank (AAB67036, see Yanagi, M., Purcell, R. H., Emerson, S. U. and Bukh, J. Proc. Natl. Acad. Sci. U.S.A. 94(16), 8738-8743 (1997); AF054247, see Yanagi, M., St Claire, M., Shapiro, M., Emerson, S. U., Purcell, R. H. and Bukh, J, Virology 244 (1), 161-172. (1998)).
The H77 and J4L6S strains were used for production of recombinant NS3/4A protease complexes. DNA encoding the recombinant HCV NS3/4A protease complex (amino acids 1027 to 1711) for these strains were manipulated as described by P. Gallinari et al. (see Gallinari P, Paolini C, Brennan D, Nardi C, Steinkuhler C, De Francesco R. Biochemistry. 38(17):5620-32, (1999)). Briefly, a three-lysine solubilizing tail was added at the 3′-end of the NS4A coding region. The cysteine in the P1 position of the NS4A-NS4B cleavage site (amino acid 1711) was changed to a glycine to avoid the proteolytic cleavage of the lysine tag. Furthermore, a cysteine to serine mutation was introduced by PCR at amino acid position 1454 to prevent the autolytic cleavage in the NS3 helicase domain. The variant DNA fragment was cloned in the pET21b bacterial expression vector (Novagen) and the NS3/4A complex was expressed in Escherichia. coli strain BL21 (DE3) (Invitrogen) following the protocol described by P. Gallinari et al. (see Gallinari P, Brennan D, Nardi C, Brunetti M, Tomei L, Steinkuhler C, De Francesco R., J Virol. 72(8):6758-69 (1998)) with modifications. Briefly, the NS3/4A protease complex expression was induced with 0.5 millimolar (mM) Isopropyl β-D-1-thiogalactopyranoside (IPTG) for 22 hours (h) at 20° C. A typical fermentation (1 Liter (L)) yielded approximately 10 grams (g) of wet cell paste. The cells were resuspended in lysis buffer (10 mL/g) consisting of 25 mM N-(2-Hydroxyethyl)Piperazine-N′-(2-Ethane Sulfonic acid) (HEPES), pH 7.5, 20% glycerol, 500 mM Sodium Chloride (NaCl), 0.5% Triton X-100, 1 microgram/milliliter (“μg/mL”) lysozyme, 5 mM Magnesium Chloride (MgCl2), 1 μg/ml DnaseI, 5 mM β-Mercaptoethanol (βME), Protease inhibitor-Ethylenediamine Tetraacetic acid (EDTA) free (Roche), homogenized and incubated for 20 minutes (min) at 4° C. The homogenate was sonicated and clarified by ultra-centrifugation at 235000 g for 1 h at 4° C. Imidazole was added to the supernatant to a final concentration of 15 mM and the pH adjusted to 8.0. The crude protein extract was loaded on a Nickel-Nitrilotriacetic acid (Ni-NTA) column pre-equilibrated with buffer B (25 mM HEPES, pH 8.0, 20% glycerol, 500 mM NaCl, 0.5% Triton X-100, 15 mM imidazole, 5 mM βME). The sample was loaded at a flow rate of 1 mL/min. The column was washed with 15 column volumes of buffer C (same as buffer B except with 0.2% Triton X-100). The protein was eluted with 5 column volumes of buffer D (same as buffer C except with 200 mM Imidazole). […]

SMILES | EC50 [1] [nM] | IC50 [2] [nM] | melting point [°C]
CC(C)(C)OC(=O)N[C@H]1CCCOC/C=C\[C@@H]2C[C@@]2(C(=O)NS(=O)(=O)C2CC2)NC(=O)[C@@H]2C[C@@H](OC(C)(C)C)CN2C1=O [Compound 6, (1S,4R,6S,14S,18R,7-cis)-18-tert-butoxy-14-tert-butoxycarbonylamino-4-cyclopropanesulfonylaminocarbonyl-2,15-dioxo-3,16-diaza-10-oxatricyclo[14.3.0.0^4,6]nonadec-7-ene] | > 1000 | 100 to 1000 | 
CC(C)(C)OC(=O)N[C@H]1CCCOC/C=C\[C@@H]2C[C@@]2(C(=O)NS(=O)(=O)C2CC2)NC(=O)[C@@H]2C[C@@H](OCc3ccccc3)CN2C1=O [Compound 5, (1S,4R,6S,14S,18R,7-cis)-18-benzyloxy-14-tert-butoxycarbonylamino-4-cyclopropanesulfonylaminocarbonyl-2,15-dioxo-3,16-diaza-10-oxatricyclo[14.3.0.0^4,6]nonadec-7-ene] | > 1000 | < 100 | 147 to 149
CC(C)(C)OC(=O)N[C@H]1CCCCC/C=C\[C@@H]2C[C@@]2(C(=O)NS(=O)(=O)C2CC2)NC(=O)[C@@H]2C[C@@H](Oc3ccccn3)CN2C1=O [Compound 1] | 100 to 1000 | < 100 | 
CC(C)(C)OC(=O)N[C@H]1CCCCC/C=C\[C@@H]2C[C@@]2(C(=O)NS(=O)(=O)C2CC2)NC(=O)[C@@H]2C[C@@H](Oc3ccc([N+](=O)[O-])cc3)CN2C1=O [Compound 2] | > 1000 | < 100 | 
